Data published in patent US9175003B2, “Substituted azoanthracene derivatives and intermediates for preparation thereof” (TransTech Pharma, LLC, priority 2009, dated 2015).

target: human GLP-1 receptor (Homo sapiens (Human), UniProt P43220); conditions: read-out: Mean EC50; cAMP, HTRF detection, 30 min at 37° C., HEK-293 cells expressing cloned human GLP-1 receptor
Sequence (P43220 24-463): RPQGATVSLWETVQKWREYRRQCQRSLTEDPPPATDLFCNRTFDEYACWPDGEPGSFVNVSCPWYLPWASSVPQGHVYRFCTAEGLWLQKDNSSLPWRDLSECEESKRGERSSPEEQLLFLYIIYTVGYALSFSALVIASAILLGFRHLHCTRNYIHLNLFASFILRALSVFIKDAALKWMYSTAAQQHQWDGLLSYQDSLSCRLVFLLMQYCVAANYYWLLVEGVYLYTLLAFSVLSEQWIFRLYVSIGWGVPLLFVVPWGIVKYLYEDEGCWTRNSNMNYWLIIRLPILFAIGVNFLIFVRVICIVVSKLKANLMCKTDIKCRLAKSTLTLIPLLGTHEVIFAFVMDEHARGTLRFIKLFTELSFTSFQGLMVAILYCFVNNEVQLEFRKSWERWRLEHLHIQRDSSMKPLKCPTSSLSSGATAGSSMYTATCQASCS

| Structure (SMILES) | EC50 [nM] |
| --- | --- |
| Cn1ccnc1CN1Cc2cc3c(cc2C[C@H]1C(=O)N[C@@H](Cc1ccc(-c2ccc(C#N)cc2)cc1)C(=O)O)OCC(c1ccc(OCc2ccc(Cl)c(Cl)c2)cc1)O3 (stereo in doubt) [Example 40, (S)-3-(4′-Cyano-biphenyl-4-yl)-2-{[(S)-3-[4-(3,4-dichloro-benzyloxy)-phenyl]-7-(1-methyl-1H-imidazol-2-ylmethyl)-2,3,6,7,8,9-hexahydro-[1,4]dioxino[2,3-g]isoquinoline-8-carbonyl]-amino}-propionic acid] | 310 |
| CC[C@@H](c1ccccc1)N1Cc2cc3c(cc2C[C@H]1C(=O)N[C@@H](Cc1ccc(-c2ccnc(C)c2C)cc1)C(=O)O)OC[C@H](c1ccc(OCCN(C)C)cc1)O3 [Example 165, (S)-2-{[(3S,8S)-3-[4-(2-Dimethylamino-ethoxy)-phenyl]-7-((S)-1-phenyl-propyl)-2,3,6,7,8,9-hexahydro-[1,4]dioxino[2,3-g]isoquinoline-8-carbonyl]-amino}-3-[4-(2,3-dimethyl-pyridin-4-yl)-phenyl]-propionic acid] | 396 |
| COc1cc(C)ccc1S(=O)(=O)N1Cc2cc3c(cc2C[C@H]1C(=O)N[C@@H](Cc1ccc(-c2ccc(C#N)cc2)cc1)C(=O)O)OC[C@H](c1ccc(OCc2ccc(Cl)c(Cl)c2)cc1)O3 [Example 98, (S)-3-(4′-Cyano-biphenyl-4-yl)-2-{[(3S,8S)-3-[4-(3,4-dichloro-benzyloxy)-phenyl]-7-(2-methoxy-4-methyl-benzenesulfonyl)-2,3,6,7,8,9-hexahydro-[1,4]dioxino[2,3-g]isoquinoline-8-carbonyl]-amino}-propionic acid] | 377 |
| Cc1nccc(-c2ccc(C[C@H](NC(=O)[C@@H]3Cc4cc5c(cc4CN3C(=O)C3CNC(=O)N3)O[C@@H](c3ccc(OCc4ccc(Cl)c(Cl)c4)cc3)CO5)C(=O)O)cc2)c1C (stereo partly drawn) [Example 333, (S)-2-{[(3S,8S)-3-[4-(3,4-Dichloro-benzyloxy)-phenyl]-7-(2-oxo-imidazolidine-4-carbonyl)-2,3,6,7,8,9-hexahydro-[1,4]dioxino[2,3-g]isoquinoline-8-carbonyl]-amino}-3-[4-(2,3-dimethyl-pyridin-4-yl)-phenyl]-propionic acid] | 195 |
| Cc1nc(NC(=O)C2CCC2)sc1S(=O)(=O)N1Cc2cc3c(cc2C[C@H]1C(=O)N[C@@H](Cc1ccc(-c2ccc(C#N)cc2)cc1)C(=O)O)OCC(c1ccc(OCc2ccc(Cl)c(Cl)c2)cc1)O3 (stereo in doubt) [Example 55, (S)-3-(4′-Cyano-biphenyl-4-yl)-2-({(S)-7-[2-(cyclobutanecarbonyl-amino)-4-methyl-thiazole-5-sulfonyl]-3-[4-(3,4-dichloro-benzyloxy)-phenyl]-2,3,6,7,8,9-hexahydro[1,4]dioxino[2,3-g]isoquinoline-8-carbonyl}-amino)-propionic acid] | 360 |
| Cc1nccc(-c2ccc(C[C@H](NC(=O)[C@@H]3Cc4cc5c(cc4CN3C(=O)C3Cc4ccccc4C3)O[C@@H](c3ccc(OCc4ccc(Cl)c(Cl)c4)cc3)CO5)C(=O)O)cc2)c1C [Example 282, (S)-2-{[(3S,8S)-3-[4-(3,4-Dichloro-benzyloxy)-phenyl]-7-(indane-2-carbonyl)-2,3,6,7,8,9-hexahydro-[1,4]dioxino[2,3-g]isoquinoline-8-carbonyl]-amino}-3-[4-(2,3-dimethyl-pyridin-4-yl)-phenyl]-propionic acid] | 198 |
| CCNc1nc(C)c(S(=O)(=O)N2Cc3cc4c(cc3C[C@H]2C(=O)N[C@@H](Cc2ccc(-c3ccc(C#N)cc3)cc2)C(=O)O)OC[C@@H](c2ccc(OCc3ccc(Cl)c(Cl)c3)cc2)O4)s1 [Example 62, (S)-3-(4′-Cyano-biphenyl-4-yl)-2-{[(3R,8S)-3-[4-(3,4-dichloro-benzyloxy)-phenyl]-7-(2-ethylamino-4-methyl-thiazole-5-sulfonyl)-2,3,6,7,8,9-hexahydro-[1,4]dioxino[2,3-g]isoquinoline-8-carbonyl]-amino}-propionic acid] | 328 |

The next compounds have a lower EC50 than those just listed; values first:

| EC50 [nM] | Structure (SMILES) |
| --- | --- |
| 22 | Cc1nc(C(=O)N2Cc3cc4c(cc3C[C@H]2C(=O)N[C@@H](Cc2ccc(-c3ccnc(C)c3C)cc2)C(=O)O)OC[C@@H](c2ccc(OCc3ccc(Cl)c(Cl)c3)cc2)O4)c(C)o1 [Example 428, (S)-2-{[(3R,8S)-3-[4-(3,4-Dichloro-benzyloxy)-phenyl]-7-(2,5-dimethyl-oxazole-4-carbonyl)-2,3,6,7,8,9-hexahydro-[1,4]dioxino[2,3-g]isoquinoline-8-carbonyl]-amino}-3-[4-(2,3-dimethyl-pyridin-4-yl)-phenyl]-propionic acid] |
| 186 | Cc1nccc(-c2ccc(C[C@H](NC(=O)[C@@H]3Cc4cc5c(cc4CN3C(=O)Nc3ccc(F)c(F)c3)O[C@@H](c3ccc(OCc4ccc(Cl)c(Cl)c4)cc3)CO5)C(=O)O)cc2)c1C [Example 254, (S)-2-{[(3S,8S)-3-[4-(3,4-Dichloro-benzyloxy)-phenyl]-7-(3,4-difluoro-phenylcarbamoyl)-2,3,6,7,8,9-hexahydro-[1,4]dioxino[2,3-g]isoquinoline-8-carbonyl]-amino}-3-[4-(2,3-dimethyl-pyridin-4-yl)-phenyl]-propionic acid] |
| 9 | Cc1nc(N)sc1S(=O)(=O)N1Cc2cc3c(cc2C[C@H]1C(=O)N[C@@H](Cc1ccc(-c2ccnc(C)c2C)cc1)C(=O)O)OC[C@H](c1ccc(OCc2ccc(Cl)c(Cl)c2)cc1)O3 [Example 411, (S)-2-({(3S,8S)-7-(2-Amino-4-methyl-thiazole-5-sulfonyl)-3-[4-(3,4-dichloro-benzyloxy)-phenyl]-2,3,6,7,8,9-hexahydro-[1,4]dioxino[2,3-g]isoquinoline-8-carbonyl}-amino)-3-[4-(2,3-dimethyl-pyridin-4-yl)-phenyl]-propionic acid] |
| 138 | Cc1nc(C(=O)N2Cc3cc4c(cc3C[C@H]2C(=O)N[C@@H](Cc2ccc(-c3ccnc(C)c3C)cc2)C(=O)O)OC[C@H](c2ccc(OCc3ccc(Cl)cc3Cl)cc2)O4)c(C)o1 [Example 383, (S)-2-{[(3S,8S)-3-[4-(2,4-dichloro-benzyloxy)-phenyl]-7-(2,5-dimethyl-oxazole-4-carbonyl)-2,3,6,7,8,9-hexahydro-[1,4]dioxino[2,3-g]isoquinoline-8-carbonyl]-amino}-3-[4-(2,3-dimethyl-pyridin-4-yl)-phenyl]-propionic acid] |
| 74 | Cc1nccc(-c2ccc(C[C@H](NC(=O)[C@@H]3Cc4cc5c(cc4CN3C(=O)N3CCOCC3)O[C@@H](c3ccc(OCc4ccc(Cl)c(Cl)c4)cc3)CO5)C(=O)O)cc2)c1C [Example 311, (S)-2-{[(3S,8S)-3-[4-(3,4-Dichloro-benzyloxy)-phenyl]-7-(morpholine-4-carbonyl)-2,3,6,7,8,9-hexahydro-[1,4]dioxino[2,3-g]isoquinoline-8-carbonyl]-amino}-3-[4-(2,3-dimethyl-pyridin-4-yl)-phenyl]-propionic acid] |
| 178 | Cc1nccc(-c2ccc(C[C@H](NC(=O)[C@@H]3Cc4cc5c(cc4CN3C(=O)NC(C)(C)c3ccccc3)O[C@@H](c3ccc(OCc4ccc(Cl)c(Cl)c4)cc3)CO5)C(=O)O)cc2)c1C [Example 323, (S)-2-{[(3S,8S)-3-[4-(3,4-Dichloro-benzyloxy)-phenyl]-7-(1-methyl-1-phenyl-ethylcarbamoyl)-2,3,6,7,8,9-hexahydro-[1,4]dioxino[2,3-g]isoquinoline-8-carbonyl]-amino}-3-[4-(2,3-dimethyl-pyridin-4-yl)-phenyl]-propionic acid] |
| 62 | CC[C@@H](c1ccccc1)N1Cc2cc3c(cc2C[C@H]1C(=O)N[C@@H](Cc1ccc(-c2ccnc(C)c2C)cc1)C(=O)O)OC[C@H](c1ccc(OC2CCCCC2)cc1)O3 [Example 164, (S)-2-{[(3S,8S)-3-(4-Cyclohexyloxy-phenyl)-7-((S)-1-phenyl-propyl)-2,3,6,7,8,9-hexahydro-[1,4]dioxino[2,3-g]isoquinoline-8-carbonyl]-amino}-3-[4-(2,3-dimethyl-pyridin-4-yl)-phenyl]-propionic acid] |
| 183 | Cc1nc(C(=O)N2Cc3cc4c(cc3C[C@H]2C(=O)N[C@@H](Cc2ccc(-c3ccnc(C)c3C)cc2)C(=O)O)OC[C@H](c2ccc(OCC3CCC(C(F)(F)F)CC3)cc2)O4)c(C)o1 (stereo partly drawn) [Example 225, (S)-2-({(3S,8S)-7-(2,5-Dimethyl-oxazole-4-carbonyl)-3-[4-(4-trifluoromethyl-cyclohexylmethoxy)-phenyl]-2,3,6,7,8,9-hexahydro-[1,4]dioxino[2,3-g]isoquinoline-8-carbonyl}-amino)-3-[4-(2,3-dimethyl-pyridin-4-yl)-phenyl]-propionic acid] |
| 76 | COc1cccc(CN2Cc3cc4c(cc3C[C@H]2C(=O)N[C@@H](Cc2ccc(-c3ccnc(C)c3C)cc2)C(=O)O)OC[C@H](c2ccc(OCc3ccc(Cl)c(Cl)c3)cc2)O4)n1 [Example 229, (S)-2-{[(3S,8S)-3-[4-(3,4-Dichloro-benzyloxy)-phenyl]-7-(6-methoxy-pyridin-2-ylmethyl)-2,3,6,7,8,9-hexahydro-[1,4]dioxino[2,3-g]isoquinoline-8-carbonyl]-amino}-3-[4-(2,3-dimethyl-pyridin-4-yl)phenyl]-propionic acid] |
| 165 | Cc1nccc(-c2ccc(C[C@H](NC(=O)[C@@H]3Cc4cc5c(cc4CN3C(=O)[C@H]3CCN(C(=O)OC(C)(C)C)C3)O[C@@H](c3ccc(OCc4ccc(Cl)c(Cl)c4)cc3)CO5)C(=O)O)cc2)c1C [Example 280, (S)-3-{(3S,8S)-8-{(S)-1-Carboxy-2-[4-(2,3-dimethyl-pyridin-4-yl)-phenyl]-ethylcarbamoyl}-3-[4-(3,4-dichloro-benzyloxy)-phenyl]-2,3,8,9-tetrahydro-6H-[1,4]dioxino[2,3-g]isoquinoline-7-carbonyl}-pyrrolidine-1-carboxylic acid tert-butyl ester] |
| 3 | CC[C@@H](c1ccccc1)N1Cc2cc3c(cc2C[C@H]1C(=O)N[C@@H](Cc1ccc(-c2cc(C)nn2C)cc1)C(=O)O)OC[C@H](c1ccc(OCc2ccc(Cl)c(Cl)c2)cc1)O3 [Example 180, (S)-2-{[(3S,8S)-3-[4-(3,4-Dichloro-benzyloxy)-phenyl]-7-((S)-1-phenyl-propyl)-2,3,6,7,8,9-hexahydro-[1,4]dioxino[2,3-g]isoquinoline-8-carbonyl]-amino}-3-[4-(2,5-dimethyl-2H-pyrazol-3-yl)-phenyl]-propionic acid] |
